6 compounds from patent US11718642B2, “Compositions and methods for treating CNS disorders” (Sage Therapeutics, Inc., priority 2018, dated 2023) can be followed below.

In the experiment the target is GABAA receptor. The experiment is described as follows: Steroid inhibition of [35S]-TBPS binding, rat brain cortical membranes. The following applies: in the presence of 5 mM GABA. The protocol: [^35S]-t-Butylbicyclophosphorothionate (TBPS) binding assays using rat brain cortical […] membranes in the presence of 5 mM GABA has been described (Gee et al, J. Pharmacol. Exp. Ther. 1987, 241, 346-353; Hawkinson et al, Mol. Pharmacol. 1994, 46, 977-985; Lewin, A. H et al., Mol. Pharmacol. 1989, 35, 189-194).
Briefly, cortices are rapidly removed following decapitation of carbon dioxide-anesthetized Sprague-Dawley rats (200-250 g). The cortices are homogenized in 10 volumes of ice-cold 0.32 M sucrose using a glass/teflon homogenizer and centrifuged at 1500×g for 10 min at 4° C. The resultant supernatants are centrifuged at 10,000×g for 20 min at 4° C. to obtain the P2 pellets. The P2 pellets are resuspended in 200 mM NaC/50 mM Na—K phosphate pH 7.4 buffer and centrifuged at 10,000×g for 10 min at 4° C. This washing procedure is repeated twice and the pellets are resuspended in 10 volumes of buffer. Aliquots ([…]) of the membrane suspensions are incubated with 3 nM [^35S]-TBPS and […] aliquots of test drug dissolved in dimethyl sulfoxide (DMSO) (final 0.5%) in the presence of 5 mM GABA. The incubation is brought to a final volume of 1.0 mL with buffer. Nonspecific binding is determined in the presence of […] unlabeled TBPS and ranged from 15 to 25%. Following a 90 min incubation at room temp, the assays are terminated by filtration through glass fiber filters (Schleicher and Schuell No. 32) using a cell harvester (Brandel) and rinsed three times with ice-cold buffer. Filter bound radioactivity is measured by liquid scintillation spectrometry. Non-linear curve fitting of the overall data for each drug averaged for each concentration is done using Prism (GraphPad). […] The concentration of test compound producing 50% inhibition (IC50) of specific binding and the maximal extent of inhibition (Imax) are determined for the individual experiments with the same model used for the overall data and then the means±SEM.s of the individual experiments are calculated.
Various compounds are or can be screened to determine their potential as modulators of [35S]-TBPS binding in vitro. These assays are or can be performed in accordance with the above.

For the compound `C[C@@]1(O)CC[C@H]2[C@H](CC[C@@H]3[C@@H]2CC[C@]2(C)[C@@H](C(=O)Cn4cc(C#N)cn4)OC[C@@H]32)C1` [II-A13b, 1-(2-((1S,3aS,3bR,5aR,7R,9aS,9bR,11aS)-7-hydroxy-7,11a-dimethylhexadecahydrophenanthro[1,2-c]furan-1-yl)-2-oxoethyl)-1H-pyrazole-4-carbonitrile], where the note is “Table II-2, 3 nM [35S]-TBPS”, the half-inhibitory concentration (IC50) (usually the point on the concentration scale where inhibition reaches its midpoint) is 1000 to 10000 nM.

As for `CC(=O)[C@H]1COC[C@H]2[C@@H]3CC[C@@H]4C[C@](C)(O)CC[C@@H]4[C@H]3CC[C@]12C` [II-B12, 1-((1R,4aS,4bR,6aR,8R,10aS,10bR,12aS)-8-hydroxy-8,12a-dimethylhexadecahydro-2H-naphtho[1,2-h]isochromen-1-yl)ethan-1-one], the 50% inhibitory concentration (IC50) (Table II-2, 3 nM [35S]-TBPS) is 100 to 1000 nM.

As for `CC(=O)[C@H]1CC[C@H]2[C@@H]3COC4C[C@](C)(O)CC[C@@H]4[C@H]3CC[C@]12C` (stereo in doubt) [I-A15, 1-((1S,3aS,3bR,5aS,7R,9aR,9bS,11aS)-7-hydroxy-7,11a-dimethylhexadecahydroindeno[4,5-c]chromen-1-yl)ethan-1-one], the 50% inhibitory concentration (IC50) (Table I-1, 3 nM [35S]-TBPS) was 1000 to 10000 nM.

For the compound `C[C@@]1(O)CC[C@H]2[C@H](CC[C@@H]3[C@@H]2CC[C@]2(C)[C@@H](C(=O)Cn4cc(C#N)cn4)COC[C@@H]32)C1` [II-B14, 1-(2-((1R,4aS,4bR,6aR,8R,10aS,10bR,12aS)-8-hydroxy-8,12a-dimethylhexadecahydro-2H-naphtho[1,2-h]isochromen-1-yl)-2-oxoethyl)-1H-pyrazole-4-carbonitrile], the half-maximal inhibitory concentration (IC50) (Table II-2, 3 nM [35S]-TBPS) lay within 100 to 1000 nM.

Regarding `CC(=O)[C@H]1OC[C@H]2[C@@H]3CC[C@@H]4C[C@](C)(O)CC[C@@H]4[C@H]3CC[C@]12C` [II-A11b, 1-((1S,3aS,3bR,5aR,7R,9aS,9bR,11aS)-7-hydroxy-7,11a-dimethylhexadecahydrophenanthro[1,2-c]furan-1-yl)ethan-1-one], for the setting “Table II-2, 3 nM [35S]-TBPS”, the IC50 is at least 10000 nM.

On to `C[C@@]1(O)CC[C@@H]2[C@H]3CC[C@]4(C)[C@@H](C(=O)Cn5cc(C#N)cn5)CC[C@H]4[C@@H]3CO[C@@H]2C1` [I-A17, 1-(2-((1S,3aS,3bR,5aS,7R,9aR,9bS,1aS)-7-hydroxy-7,11a-dimethylhexadecahydroindeno[4,5-c]chromen-1-yl)-2-oxoethyl)-1H-pyrazole-4-carbonitrile], for which the half-maximal inhibitory concentration (IC50) (Table I-1, 3 nM [35S]-TBPS) lay in the range of 1000 to 10000 nM.
